Test results reported in article PMC8179358, “An explicitly designed paratope of amyloid-β prevents neuronal apoptosis in vitro and hippocampal damage in rat brain” (Chemical Science, 2020).

How the values were obtained:
Type in all cases: biochemical
[1] = test system: Aβ42; experiment: DLS of Aβ42 aggregates; settings: untreated Aβ42 50 μM
Protocol: Dynamic light scattering (DLS) measurements
DLS1,2 measurements were performed with the different Aβ42peptide samples (oligomers and mature fibrils) on a Malvern nano zetasizer (Malvern, UK) using a laser source with λ=633 nm and a detector at a scattering angle of θ = 173 degrees.
for the ThT assay, in the absence of ThT dye, for 1h, 5h, 10h and 20h min to generate oligomers and mature fibrils, respectively and the hydrodynamic diameter of them was immediately examined by DLS.
Prior to the analysis, samples were filtered through 0.45 µm PVDF membrane. The samples were placed in a disposable cuvette and held at the corresponding temperature during the analysis. For each sample, the analyses were recorded three times with 11 sub-runs using the multimodal mode. The Z-average diameter was calculated from the correlation function using Malvern technology software. g.

[2] = test system: Aβ42; experiment: TEM of early events of Aβ42 aggregation; settings: absence of SP1; 1, 5, 10, 20 h
Protocol: Transmission Electron Microscopy (TEM)
10μL aliquot from the stock peptide solution after incubation of 10 days (7 days for inhibition study) was added over the carbon-coated copper grid. Then 2% uranyl acetate solution (10μL) was added onto it and allowed to float for 1 min. The excess solution was removed using a blotting paper. The sample was dried at room temperature and kept in desiccators before taking TEM analysis on JEOL (Model: JEM 2100)

[3] = Carboxyfluorescein dye leakage from LUVs, Aβ42; settings: Aβ42 50 μM
Protocol: Carboxyfluorescein dye loaded Large Unilamellar Vesicles (LUVs) preparation LUVs were prepared using a mixture of DMPC, Cholesterol, and GM1 (68:30:2, molar). Lipids were dissolved in chloroform and methanol (2:1, 2 mM) in a glass vessel, and solvents were evaporated using nitrogen gas to make lipid films.3 The lipid films were hydrated with 500 µL of carboxyfluorescein (CF) solution (200 µM) in 50mM HEPES buffer of pH 7.4. Then, the solution was vortexed vigorously for 30 min for emulsification. Then the glass vial was dipped into the liquid nitrogen for instant cooling, and after 5 min the frozen solution was dipped into a water bath at 50-60 °C for freeze-thawing.4This step was repeated five times. The excess dye was removed by ultracentrifugation at 20000 rpm, the supernatant […]
Carboxyfluorescein dye loaded Large Unilamellar Vesicles (LUVs) Leakage Study For leakage study, peptide and lipids were taken in 1:20 molar ratios, and the dye release was monitored by fluorescence emission. Emission was measured at 516 nm, and excitation at 485 nm, 3 nm of bandwidth on a Fluoromax-4, Horiba instrument. The complete dye release from the vesicle was obtained using Triton X-100, and the final fluorescence was measured. The % leakage was calculated as, % 𝐿𝑒𝑎𝑘𝑎𝑔𝑒 = (𝑂𝑏𝑠𝑒𝑟𝑣𝑒𝑑 𝑓𝑙𝑢𝑜𝑟𝑒𝑠𝑐𝑒𝑛𝑐𝑒 –𝑖𝑛𝑖𝑡𝑖𝑎𝑙 𝑓𝑙𝑢𝑜𝑟𝑒𝑠𝑐𝑒𝑛𝑐𝑒) × 100 % … ..(4) (𝑇𝑜𝑡𝑎𝑙 𝑓𝑙𝑢𝑜𝑟𝑒𝑠𝑐𝑒𝑛𝑐𝑒 ‒ 𝑖𝑛𝑖𝑡𝑖𝑎𝑙 𝑓𝑙𝑢𝑜𝑟𝑒𝑠𝑐𝑒𝑛𝑐𝑒) […]

Substance: Aβ42: Aβ42 peptide
- hydrodynamic diameter ([1]; 1 h): ~8 nm
- hydrodynamic diameter ([1]; 10 h): ~825 nm
- hydrodynamic diameter ([1]; 20 h): ~940 nm
- morphology of Aβ42 aggregates (TEM) [2]: exhibited smaller aggregates at 1 h or 5 h
- dye leakage from LUVs ([3]; absence of SP1, 5 h aged): ~55%
- dye leakage from LUVs ([3]; absence of SP1, 10 h aged): ~23%
